The target of experiment [1] is DNA topoisomerase 2-alpha (Homo sapiens) (UniProt P11388). Description: Poisoning activity at topoisomerase 2 in human MCF7 cells at 10 uM after 12 hrs by immunoband depletion assay. The class given is cell-based.
For experiment [2], the target named is T1, DNA topoisomerase 1 (Homo sapiens) (UniProt P11387).
T1 sequence (whole entry): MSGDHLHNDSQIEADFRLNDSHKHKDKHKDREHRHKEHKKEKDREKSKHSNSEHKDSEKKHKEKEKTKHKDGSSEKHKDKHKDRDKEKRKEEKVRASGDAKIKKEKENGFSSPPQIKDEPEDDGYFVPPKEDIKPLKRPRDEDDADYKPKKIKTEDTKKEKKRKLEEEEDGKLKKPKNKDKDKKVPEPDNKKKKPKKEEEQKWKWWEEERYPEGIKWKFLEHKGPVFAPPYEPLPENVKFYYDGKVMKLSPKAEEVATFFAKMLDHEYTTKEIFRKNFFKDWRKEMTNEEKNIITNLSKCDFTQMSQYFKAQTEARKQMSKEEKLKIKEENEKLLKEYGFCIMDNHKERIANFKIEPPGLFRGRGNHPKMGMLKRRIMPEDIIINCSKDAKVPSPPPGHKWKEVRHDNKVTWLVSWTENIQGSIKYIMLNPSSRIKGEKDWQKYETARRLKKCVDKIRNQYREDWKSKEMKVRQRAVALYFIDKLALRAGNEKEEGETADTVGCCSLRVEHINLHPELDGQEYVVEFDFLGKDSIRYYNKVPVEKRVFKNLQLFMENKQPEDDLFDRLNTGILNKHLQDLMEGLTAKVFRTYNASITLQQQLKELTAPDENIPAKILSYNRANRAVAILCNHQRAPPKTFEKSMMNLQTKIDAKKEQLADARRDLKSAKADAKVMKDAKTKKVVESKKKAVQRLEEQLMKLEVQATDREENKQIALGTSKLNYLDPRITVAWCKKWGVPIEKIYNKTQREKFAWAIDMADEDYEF
Description: Poisoning activity at topoisomerase 1 in human MCF7 cells at 10 uM after 12 hrs by immunoband depletion assay. The class given is cell-based.

Experiment [3] relates to MCF7. Description: Induction of mitochondrial membrane depolarization in human MCF7 cells after 24 to 48 hrs by JC-1 staining based FACS assay (reference value: 9.9%). The class given is functional. A general note: Flow cytometry measures light scatter and fluorescence of single cells or particles in a stream.
Experiment [4] concerns MCF7. Description: Induction of mitochondrial membrane depolarization in human MCF7 cells assessed as ratio of red to green fluorescence after 24 to 48 hrs by JC-1 staining based FACS assay (reference value: 9.1). It is filed as functional.

Activity calls are given as the source filed them. The rule behind the calls is not given here.

DNA topoisomerase 2-alpha (Homo sapiens), sequence (P11388 whole entry): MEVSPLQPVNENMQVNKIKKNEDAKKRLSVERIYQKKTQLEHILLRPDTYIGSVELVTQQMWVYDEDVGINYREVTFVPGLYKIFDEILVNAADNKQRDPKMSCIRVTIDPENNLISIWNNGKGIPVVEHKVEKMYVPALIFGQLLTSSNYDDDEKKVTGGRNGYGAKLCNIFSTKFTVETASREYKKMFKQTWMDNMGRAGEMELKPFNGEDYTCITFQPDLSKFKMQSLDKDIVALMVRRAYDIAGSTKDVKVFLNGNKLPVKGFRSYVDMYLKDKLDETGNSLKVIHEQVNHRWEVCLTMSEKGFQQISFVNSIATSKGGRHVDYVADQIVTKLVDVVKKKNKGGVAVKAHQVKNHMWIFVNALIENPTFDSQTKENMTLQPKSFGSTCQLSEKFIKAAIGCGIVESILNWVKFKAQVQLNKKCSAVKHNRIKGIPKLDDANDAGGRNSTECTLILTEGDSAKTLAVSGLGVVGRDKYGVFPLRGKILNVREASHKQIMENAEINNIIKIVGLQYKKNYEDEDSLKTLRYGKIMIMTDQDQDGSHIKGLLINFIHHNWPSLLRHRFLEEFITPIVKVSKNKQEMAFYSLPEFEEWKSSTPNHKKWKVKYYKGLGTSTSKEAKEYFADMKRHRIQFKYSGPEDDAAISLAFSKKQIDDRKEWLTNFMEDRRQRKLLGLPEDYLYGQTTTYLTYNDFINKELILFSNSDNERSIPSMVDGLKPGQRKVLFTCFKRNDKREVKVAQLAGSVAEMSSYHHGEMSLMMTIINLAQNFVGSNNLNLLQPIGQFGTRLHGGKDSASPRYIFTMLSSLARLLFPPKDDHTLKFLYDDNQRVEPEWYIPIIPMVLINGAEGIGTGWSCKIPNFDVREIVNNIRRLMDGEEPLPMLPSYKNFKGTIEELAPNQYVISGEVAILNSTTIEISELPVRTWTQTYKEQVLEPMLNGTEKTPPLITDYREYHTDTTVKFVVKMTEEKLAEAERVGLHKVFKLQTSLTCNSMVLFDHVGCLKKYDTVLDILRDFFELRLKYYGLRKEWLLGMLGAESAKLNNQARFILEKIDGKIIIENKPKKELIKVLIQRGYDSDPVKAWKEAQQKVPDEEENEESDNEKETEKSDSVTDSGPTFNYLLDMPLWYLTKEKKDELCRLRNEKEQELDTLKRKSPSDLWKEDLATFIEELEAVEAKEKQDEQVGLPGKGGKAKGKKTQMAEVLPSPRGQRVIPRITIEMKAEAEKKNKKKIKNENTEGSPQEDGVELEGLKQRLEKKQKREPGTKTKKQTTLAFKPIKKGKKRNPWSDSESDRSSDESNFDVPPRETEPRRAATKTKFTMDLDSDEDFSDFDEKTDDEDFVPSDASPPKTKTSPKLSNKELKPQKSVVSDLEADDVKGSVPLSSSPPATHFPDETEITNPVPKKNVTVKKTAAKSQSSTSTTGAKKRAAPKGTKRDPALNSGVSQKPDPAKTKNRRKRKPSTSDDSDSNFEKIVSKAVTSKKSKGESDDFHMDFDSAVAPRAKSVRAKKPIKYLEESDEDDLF

For the compound `COc1cc([C@@H]2c3cc4c(cc3[C@@H](O[C@@H]3O[C@@H]5CO[C@@H](C)O[C@H]5[C@H](O)[C@H]3O)[C@H]3COC(=O)[C@H]23)OCO4)cc(OC)c1O`, the outcome in experiment [1] was Active. In the case of `CC[C@@]1(O)C(=O)OCc2c1cc1n(c2=O)Cc2cc3ccccc3nc2-1`, in experiment [2], the result was Active. In turn, `N#CC(C#N)=NNc1cccc(Cl)c1` [CARBONYL CYANIDE M-CHLOROPHENYLHYDRAZONE] displayed an Activity in the experiment on MCF7 [3] of 98.8%. The Ratio in the experiment with MCF7 [4] was 0.014.

Source of the values: ChEMBL document CHEMBL3817761, “Chenopodium album metabolites act as dual topoisomerase inhibitors and induce apoptosis in the MCF7 cell line” (Medchemcomm, 2016).
